Counter-ions that a name gives are not always drawn.
System: footpad swelling (SRBC challenge)
Experiment: Delayed Hypersensitivity Assay (SRBC-sensitized mice, footpad swelling)
Assay type: in vivo, female BALB/C mice
Conditions: Mus musculus, one hour prior to challenge, 24 hrs post challenge, read-out: Inhibition % (percent inhibition of footpad swelling); for inhibition in vivo at 0.1 mg/kg: dosage 0.1 mg/kg p.o.; for inhibition in vivo at 1 mg/kg: dosage 1.0 mg/kg p.o.; for inhibition in vivo at 10 mg/kg: dosage 10.0 mg/kg p.o.; for inhibition in vivo at 10000 µg/mL / inhibition in vivo at 10 µg/mL / inhibition in vivo at 100 µg/mL / inhibition in vivo at 100000 µg/mL: Table II; for inhibition in vivo at 10000 µg/mL: dosage 10.0 (mg/ml as printed) p.o.; for inhibition in vivo at 10 µg/mL: dosage 0.01 (mg/ml as printed) p.o.; for inhibition in vivo at 100 µg/mL: dosage 0.1 (mg/ml as printed) p.o.; for inhibition in vivo at 100000 µg/mL: dosage 100.0 (mg/ml as printed) p.o.; for inhibition in vivo at 0.01 mg/kg: dosage 0.01 mg/kg p.o.; for inhibition in vivo at 100 mg/kg: dosage 100.0 mg/kg p.o.
Experimental: Animals (female BALB/C mice) are sensitized with 5×10^5 SRBC(sheep red blood cells)/0.5 ml by intravenous (tail vein) injection. One hour prior to challenge, animals are dosed with the drugs in question, p.o. On day four the animals are challenged with 5×10^8 SRBC/0.05 ml in the hind foot pad. Footpad volume is measured by a mercury displacement apparatus before challenge and 24 hrs post challenge. Percent inhibition of footpad swelling is calculated by comparing the increase in footpad volume of test group to the control group.

OCC(c1ccccc1)c1nc(-c2ccncc2)cs1 (stereo not drawn) [CH2 OH, 2-Phenyl-2-[4-(4-pyridyl)-2-thiazolyl] ethanol]
inhibition in vivo at 0.1 mg/kg (po, Table I): 51%
inhibition in vivo at 1 mg/kg (po, Table I): 65%
inhibition in vivo at 10 mg/kg (po, Table I): 27%

O=CC(c1ccccc1)c1nc(-c2ccncc2)cs1 (stereo not drawn) [CHO]
inhibition in vivo at 10 mg/kg (po, Table I): 63%

N#CC(c1ccccc1)c1nc(-c2ccncc2)cs1 (stereo not drawn) [CN, 2-Phenyl-2-[4-(4-pyridyl)-2-thiazolyl]acetonitrile]
inhibition in vivo at 0.1 mg/kg (po, Table I): 58%
inhibition in vivo at 1 mg/kg (po, Table I): 46%

N#Cc1cc(-c2csc(Cc3ccccc3)n2)ccn1 [Example 2-CN]
inhibition in vivo at 10000 µg/mL: 36.6%

Clc1cc(-c2csc(Cc3ccccc3)n2)ccn1 [Example 2-Cl, 2-Benzyl-4-(2-chloro-4-pyridyl)thiazole]
inhibition in vivo at 10 µg/mL: 52.6%
inhibition in vivo at 100 µg/mL: 64.7%
inhibition in vivo at 10000 µg/mL: 77.6%
inhibition in vivo at 100000 µg/mL: 80.1%

c1ccc(Cc2nc(-c3ccnc(N4CCOCC4)c3)cs2)cc1 [Example 2-morpholino]
inhibition in vivo at 10 µg/mL: 26.1%
inhibition in vivo at 100 µg/mL: 33.8%
inhibition in vivo at 10000 µg/mL: 44.3%
inhibition in vivo at 100000 µg/mL: 45.1%

FC(F)(c1ccccc1)c1nc(-c2ccncc2)cs1 [F,F, 1,1-Difluoro-1-phenyl-1-[4-(4-pyridyl)-2-thiazolyl]-methane]
inhibition in vivo at 1 mg/kg (po, Table I): 49%
inhibition in vivo at 10 mg/kg (po, Table I): 63%

c1ccc(Cc2nc(-c3ccncc3)cs2)cc1 [H, 2-Benzyl-4-(4-pyridyl)thiazole]
inhibition in vivo at 0.01 mg/kg (po, Table I): 21.8%
inhibition in vivo at 0.1 mg/kg (po, Table I): 70.2%
inhibition in vivo at 30 mg/kg (po, Table I, dosage 30 mg/kg p.o.): 75.2%

[O-][n+]1ccc(-c2csc(Cc3ccccc3)n2)cc1 [Noxide, 4-[2-(Phenylmethyl)-4-thiazolyl]pyridine-1-oxide]
inhibition in vivo at 10 µg/mL: 46%
inhibition in vivo at 100 µg/mL: 55.6%
inhibition in vivo at 10000 µg/mL: 71.8%
inhibition in vivo at 100000 µg/mL: 93.4%

OC(c1ccccc1)c1nc(-c2ccncc2)cs1 (stereo not drawn) [OH, 1-Phenyl-1-[4-(4-pyridyl)-2-thiazolyl]methanol]
inhibition in vivo at 0.1 mg/kg (po, Table I): 32%
inhibition in vivo at 1 mg/kg (po, Table I): 31%
inhibition in vivo at 10 mg/kg (po, Table I): 55%

Fc1ccc(Cc2nc(-c3ccncc3)cs2)cc1 [PF, 2-(p-fluoro-benzyl)-4-(4-pyridyl)thiazole]
inhibition in vivo at 0.1 mg/kg (po, Table I): 11.7%
inhibition in vivo at 1 mg/kg (po, Table I): 60.8%
inhibition in vivo at 10 mg/kg (po, Table I): 40.9%

Cc1cccc(Cc2nc(-c3ccncc3)cs2)c1 [m-CH3, 2-(m-methyl-benzyl)-4-(4-pyridyl)thiazole dihydrochloride]
inhibition in vivo at 0.1 mg/kg (po, Table I): 49.1%
inhibition in vivo at 10 mg/kg (po, Table I): 64.8%
inhibition in vivo at 100 mg/kg (po, Table I): 71.2%

Nc1ccccc1Cc1nc(-c2ccncc2)cs1 [o-NH2, 2-(o-Aminobenzyl)-4-(4-pyridyl)thiazole]
inhibition in vivo at 0.01 mg/kg (po, Table I): 82.2%
inhibition in vivo at 0.1 mg/kg (po, Table I): 93.6%
inhibition in vivo at 10 mg/kg (po, Table I): 52.8%

CC(=O)Nc1ccccc1Cc1nc(-c2ccncc2)cs1 [o-NHCOCH3, 2-(o-acetamidobenzyl)-4-(4-pyridyl)thiazole]
inhibition in vivo at 0.1 mg/kg (po, Table I): 32.6%
inhibition in vivo at 10 mg/kg (po, Table I): 52.8%
inhibition in vivo at 100 mg/kg (po, Table I): 75.5%

NC(=O)Nc1ccccc1Cc1nc(-c2ccncc2)cs1 [o-NHCONH2]
inhibition in vivo at 0.01 mg/kg (po, Table I): 40.4%
inhibition in vivo at 10 mg/kg (po, Table I): 31.4%

Oc1ccccc1Cc1nc(-c2ccncc2)cs1 [o-OH]
inhibition in vivo at 0.01 mg/kg (po, Table I): 15.1%
inhibition in vivo at 0.1 mg/kg (po, Table I): 16.4%

c1ccc(-c2ccc(Cc3nc(-c4ccncc4)cs3)cc2)cc1 [p-C6 H5]
inhibition in vivo at 10 mg/kg (po, Table I): 36.4%

O=[N+]([O-])c1ccc(Cc2nc(-c3ccncc3)cs2)cc1 [p-NO2, 2-(p-Nitrobenzyl)-4-(4-pyridyl)thiazole]
inhibition in vivo at 0.01 mg/kg (po, Table I): 32.4%
inhibition in vivo at 0.1 mg/kg (po, Table I): 40.6%
inhibition in vivo at 10 mg/kg (po, Table I): 65.2%
inhibition in vivo at 100 mg/kg (po, Table I): 82.2%

From patent US4697012A, “Morpholino pyridyl thiazole compound” (Merck & Co., Inc., priority 1984, dated 1987)
